Data taken from patent US12281080B2, “Quinoline-based compounds and methods of inhibiting CDK8/19” (University of South Carolina, priority 2018, dated 2025).
Like-named read-outs stand apart in the source and are kept apart here.

How the values were obtained:
FGR = FGR (Homo sapiens (Human), UniProt P09769); test: KINOMEscan scanMAX; format: binding; details: 2000 nM; read-out: Percent Control
MKNK2 = MKNK2 (Homo sapiens (Human), UniProt Q9HBH9); test: KINOMEscan scanMAX; format: binding; details: 2000 nM; read-out: Percent Control
YSK4 (MAP3K19) = YSK4 (MAP3K19) (Homo sapiens (Human), UniProt Q56UN5); test: KINOMEscan scanMAX; format: binding; details: 2000 nM; read-out: Percent Control
TRKA (NTRK1) = TRKA (NTRK1) (Homo sapiens (Human), UniProt P04629); test: KINOMEscan scanMAX; format: binding; details: 2000 nM; read-out: Percent Control
BMX = BMX (Homo sapiens (Human), UniProt P51813); test: KINOMEscan scanMAX; format: binding; details: 2000 nM; read-out: Percent Control
PRKD2 = PRKD2 (Homo sapiens (Human), UniProt Q9BZL6); test: KINOMEscan scanMAX; format: binding; details: 2000 nM; read-out: Percent Control
PRKD2, sequence (Q9BZL6 whole entry): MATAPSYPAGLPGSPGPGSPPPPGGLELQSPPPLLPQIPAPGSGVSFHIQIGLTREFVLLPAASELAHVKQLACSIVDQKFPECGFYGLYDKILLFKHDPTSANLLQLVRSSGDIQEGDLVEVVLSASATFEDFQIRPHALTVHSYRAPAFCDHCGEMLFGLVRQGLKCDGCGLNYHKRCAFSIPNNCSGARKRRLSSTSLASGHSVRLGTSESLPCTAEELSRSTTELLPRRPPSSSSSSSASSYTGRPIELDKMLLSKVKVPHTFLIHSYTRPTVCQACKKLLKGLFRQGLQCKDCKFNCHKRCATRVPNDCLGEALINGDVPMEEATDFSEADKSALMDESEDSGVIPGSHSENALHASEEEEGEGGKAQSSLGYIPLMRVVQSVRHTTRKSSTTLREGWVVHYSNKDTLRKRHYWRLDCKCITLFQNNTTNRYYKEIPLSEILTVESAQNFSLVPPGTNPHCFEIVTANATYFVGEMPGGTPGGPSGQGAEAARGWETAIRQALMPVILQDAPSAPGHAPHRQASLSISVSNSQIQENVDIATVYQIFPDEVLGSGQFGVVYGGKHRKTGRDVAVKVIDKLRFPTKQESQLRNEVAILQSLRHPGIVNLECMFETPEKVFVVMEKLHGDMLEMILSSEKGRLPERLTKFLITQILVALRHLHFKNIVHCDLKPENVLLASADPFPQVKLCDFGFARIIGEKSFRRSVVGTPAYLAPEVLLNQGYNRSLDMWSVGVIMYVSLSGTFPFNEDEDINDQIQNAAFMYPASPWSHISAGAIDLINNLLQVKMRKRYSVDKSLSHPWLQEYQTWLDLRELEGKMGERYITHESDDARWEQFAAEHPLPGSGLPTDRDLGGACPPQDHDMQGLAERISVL

HCK = HCK (Homo sapiens (Human), UniProt P08631); test: KINOMEscan scanMAX; format: binding; details: 2000 nM; read-out: Percent Control
PIKFYVE = PIKFYVE (Homo sapiens (Human), UniProt Q9Y2I7); test: KINOMEscan scanMAX; format: binding; details: 2000 nM; read-out: Percent Control
LIMK1 = LIMK1 (Homo sapiens (Human), UniProt P53667); test: KINOMEscan scanMAX; format: binding; details: 2000 nM; read-out: Percent Control
FLT3(ITD, D835V) = test: KINOMEscan scanMAX; format: binding, human; details: 2000 nM
LNCaP-C4-2 cells = test: PSA production (ELISA) in LNCaP-C4-2 cells; format: cell-based, human; details: 4 days treatment, conditioned media
Experimental: Prostate cancer LNCaP-C4-2 cells were treated with different concentrations of the compounds for 4 days and the conditioned media were collected for quantification of prostate specific antigen (PSA) with an ELISA kit.

DYRK2 = DYRK2 (Homo sapiens (Human), UniProt Q92630); test: KINOMEscan scanMAX; format: binding; details: 2000 nM; read-out: Percent Control
DYRK2, sequence (Q92630 whole entry): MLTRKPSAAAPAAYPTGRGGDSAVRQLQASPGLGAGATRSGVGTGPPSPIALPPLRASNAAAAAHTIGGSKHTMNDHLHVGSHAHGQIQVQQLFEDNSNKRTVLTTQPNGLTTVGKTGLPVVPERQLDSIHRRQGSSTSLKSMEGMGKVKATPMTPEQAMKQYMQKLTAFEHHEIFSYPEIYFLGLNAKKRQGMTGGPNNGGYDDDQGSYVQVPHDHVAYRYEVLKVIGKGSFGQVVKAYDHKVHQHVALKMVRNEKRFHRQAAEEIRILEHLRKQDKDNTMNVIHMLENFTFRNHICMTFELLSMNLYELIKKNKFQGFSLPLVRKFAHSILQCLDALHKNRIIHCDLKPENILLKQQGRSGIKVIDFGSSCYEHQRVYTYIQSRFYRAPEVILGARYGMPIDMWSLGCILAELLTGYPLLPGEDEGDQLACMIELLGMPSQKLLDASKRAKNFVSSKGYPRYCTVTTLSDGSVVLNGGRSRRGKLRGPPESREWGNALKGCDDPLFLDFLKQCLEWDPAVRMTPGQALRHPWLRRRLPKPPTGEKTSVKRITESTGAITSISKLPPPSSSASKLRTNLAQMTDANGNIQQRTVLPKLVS

WNK2 = WNK2 (Homo sapiens (Human), UniProt Q9Y3S1); test: KINOMEscan scanMAX; format: binding; details: 2000 nM; read-out: Percent Control
PRKCH = PRKCH (Homo sapiens (Human), UniProt P24723); test: KINOMEscan scanMAX; format: binding; details: 2000 nM; read-out: Percent Control
[1] = target: ABL1(E255K)-phosphorylated (Homo sapiens (Human), UniProt P00519, E255K); test: KINOMEscan scanMAX; format: binding; details: 2000 nM; read-out: Percent Control
ABL1(E255K)-phosphorylated, sequence (P00519 whole entry E255K): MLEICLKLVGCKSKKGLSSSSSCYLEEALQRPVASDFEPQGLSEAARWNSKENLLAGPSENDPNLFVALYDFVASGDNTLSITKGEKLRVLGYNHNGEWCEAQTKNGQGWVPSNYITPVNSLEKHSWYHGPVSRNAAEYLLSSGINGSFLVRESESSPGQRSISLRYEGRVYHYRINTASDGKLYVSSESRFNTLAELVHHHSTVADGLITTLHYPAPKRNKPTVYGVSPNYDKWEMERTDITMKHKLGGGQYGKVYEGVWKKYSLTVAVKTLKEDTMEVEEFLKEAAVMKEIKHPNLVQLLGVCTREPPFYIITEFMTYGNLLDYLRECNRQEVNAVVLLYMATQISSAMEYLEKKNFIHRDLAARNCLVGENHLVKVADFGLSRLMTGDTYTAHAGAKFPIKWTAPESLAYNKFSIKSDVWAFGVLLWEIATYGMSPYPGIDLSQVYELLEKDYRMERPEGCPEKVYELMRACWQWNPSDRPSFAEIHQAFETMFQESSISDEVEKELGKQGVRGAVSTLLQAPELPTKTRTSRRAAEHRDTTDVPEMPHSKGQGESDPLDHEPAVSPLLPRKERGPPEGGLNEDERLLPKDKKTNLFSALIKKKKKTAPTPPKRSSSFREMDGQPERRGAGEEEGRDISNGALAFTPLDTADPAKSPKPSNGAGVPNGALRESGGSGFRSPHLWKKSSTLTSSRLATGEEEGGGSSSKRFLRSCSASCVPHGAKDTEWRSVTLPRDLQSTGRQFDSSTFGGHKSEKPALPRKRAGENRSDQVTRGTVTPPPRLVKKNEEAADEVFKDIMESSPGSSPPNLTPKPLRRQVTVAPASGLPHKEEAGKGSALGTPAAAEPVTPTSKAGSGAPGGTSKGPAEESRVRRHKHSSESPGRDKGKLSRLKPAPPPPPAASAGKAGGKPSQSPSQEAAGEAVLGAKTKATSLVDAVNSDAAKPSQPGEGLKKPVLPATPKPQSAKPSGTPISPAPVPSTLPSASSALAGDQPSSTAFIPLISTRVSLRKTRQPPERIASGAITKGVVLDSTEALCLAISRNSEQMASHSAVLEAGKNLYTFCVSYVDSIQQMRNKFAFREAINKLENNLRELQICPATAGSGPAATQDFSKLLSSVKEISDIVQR

NEK4 = NEK4 (Homo sapiens (Human), UniProt P51957); test: KINOMEscan scanMAX; format: binding; details: 2000 nM; read-out: Percent Control
EPHB1 = EPHB1 (Homo sapiens (Human), UniProt P54762); test: KINOMEscan scanMAX; format: binding; details: 2000 nM; read-out: Percent Control
[2] = target: RSK3(Kin.Dom.1-N-terminal) (RPS6KA2) (Homo sapiens (Human), UniProt Q15349); test: KINOMEscan scanMAX; format: binding; details: 2000 nM; read-out: Percent Control
S6K1 (RPS6KB1) = S6K1 (RPS6KB1) (Homo sapiens (Human), UniProt P23443); test: KINOMEscan scanMAX; format: binding; details: 2000 nM; read-out: Percent Control
ZAP70 = ZAP70 (Homo sapiens (Human), UniProt P43403); test: KINOMEscan scanMAX; format: binding; details: 2000 nM; read-out: Percent Control
FLT3(K663Q) = FLT3(K663Q) (Homo sapiens (Human), UniProt P36888, K663Q); test: KINOMEscan scanMAX; format: binding; details: 2000 nM; read-out: Percent Control
SYK = SYK (Homo sapiens (Human), UniProt P43405); test: KINOMEscan scanMAX; format: binding; details: 2000 nM; read-out: Percent Control
QSK (KIAA0999) = QSK (KIAA0999) (Homo sapiens (Human), UniProt Q9Y2K2); test: KINOMEscan scanMAX; format: binding; details: 2000 nM; read-out: Percent Control
[3] = system: 468 human kinases and disease relevant mutant variants; test: KINOMEscan scanMAX panel, whole panel; format: binding; details: 2,000 nM; CDK2, 3, 4, 5, 7, 9, 11A, 11B, 13, 14, 15, 16, 17, 18, CDKL1, CDKL3, CDKL5
LRRK2 = LRRK2 (Homo sapiens (Human), UniProt Q5S007); test: KINOMEscan scanMAX; format: binding; details: 2000 nM; read-out: Percent Control
PRKG2 = PRKG2 (Homo sapiens (Human), UniProt Q13237); test: KINOMEscan scanMAX; format: binding; details: 2000 nM; read-out: Percent Control
PKN1 = PKN1 (Homo sapiens (Human), UniProt Q16512); test: KINOMEscan scanMAX; format: binding; details: 2000 nM; read-out: Percent Control
ADCK3 (CABC1) = ADCK3 (CABC1) (Homo sapiens (Human), UniProt Q8NI60); test: KINOMEscan scanMAX; format: binding; details: 2000 nM; read-out: Percent Control
ADCK3 (CABC1), sequence (Q8NI60 163-647): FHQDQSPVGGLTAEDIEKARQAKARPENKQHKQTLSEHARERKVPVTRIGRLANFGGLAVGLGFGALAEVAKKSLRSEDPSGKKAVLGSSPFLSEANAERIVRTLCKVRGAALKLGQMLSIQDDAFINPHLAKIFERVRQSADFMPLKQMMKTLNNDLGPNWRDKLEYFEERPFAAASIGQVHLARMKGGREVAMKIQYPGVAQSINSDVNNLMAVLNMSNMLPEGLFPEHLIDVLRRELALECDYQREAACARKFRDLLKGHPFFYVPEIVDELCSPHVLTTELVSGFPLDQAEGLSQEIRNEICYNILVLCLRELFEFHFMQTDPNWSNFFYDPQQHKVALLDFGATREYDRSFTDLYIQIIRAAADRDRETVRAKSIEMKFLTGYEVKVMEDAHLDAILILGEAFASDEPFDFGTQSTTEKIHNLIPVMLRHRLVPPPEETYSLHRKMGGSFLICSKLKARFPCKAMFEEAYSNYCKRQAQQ

FGFR3(G697C) = FGFR3(G697C) (Homo sapiens (Human), UniProt P22607, G697C); test: KINOMEscan scanMAX; format: binding; details: 2000 nM; read-out: Percent Control
PLK4 = PLK4 (Homo sapiens (Human), UniProt O00444); test: KINOMEscan scanMAX; format: binding; details: 2000 nM; read-out: Percent Control
PLK4, sequence (O00444 whole entry): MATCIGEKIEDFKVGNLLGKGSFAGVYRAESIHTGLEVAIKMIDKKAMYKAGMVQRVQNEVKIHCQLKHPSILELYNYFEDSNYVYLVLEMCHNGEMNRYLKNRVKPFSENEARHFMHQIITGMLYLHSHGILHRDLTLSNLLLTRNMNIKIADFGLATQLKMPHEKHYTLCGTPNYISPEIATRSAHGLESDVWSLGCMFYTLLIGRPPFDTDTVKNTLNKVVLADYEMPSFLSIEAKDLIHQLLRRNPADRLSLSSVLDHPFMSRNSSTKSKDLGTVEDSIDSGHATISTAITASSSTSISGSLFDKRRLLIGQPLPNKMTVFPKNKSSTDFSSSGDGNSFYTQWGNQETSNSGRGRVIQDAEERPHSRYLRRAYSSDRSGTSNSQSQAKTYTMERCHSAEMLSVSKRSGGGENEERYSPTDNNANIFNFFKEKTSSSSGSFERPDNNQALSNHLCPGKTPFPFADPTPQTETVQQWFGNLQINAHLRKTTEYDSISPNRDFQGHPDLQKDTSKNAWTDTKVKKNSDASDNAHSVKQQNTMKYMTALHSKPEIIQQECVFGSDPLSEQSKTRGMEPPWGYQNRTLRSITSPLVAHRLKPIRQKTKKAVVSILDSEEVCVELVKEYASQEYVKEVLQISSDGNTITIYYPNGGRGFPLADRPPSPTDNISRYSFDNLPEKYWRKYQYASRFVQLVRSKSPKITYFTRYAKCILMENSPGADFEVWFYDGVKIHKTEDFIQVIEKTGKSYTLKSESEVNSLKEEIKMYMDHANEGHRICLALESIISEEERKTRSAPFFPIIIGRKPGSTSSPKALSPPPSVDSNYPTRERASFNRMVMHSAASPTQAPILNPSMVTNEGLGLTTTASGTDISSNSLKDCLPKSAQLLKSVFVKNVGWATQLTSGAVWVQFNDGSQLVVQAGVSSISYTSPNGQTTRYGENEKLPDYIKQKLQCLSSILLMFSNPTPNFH

VEGFR2 (KDR) = VEGFR2 (KDR) (Homo sapiens (Human), UniProt P35968); test: KINOMEscan scanMAX; format: binding; details: 2000 nM; read-out: Percent Control
p38-gamma (MAPK12) = p38-gamma (MAPK12) (Homo sapiens (Human), UniProt P53778); test: KINOMEscan scanMAX; format: binding; details: 2000 nM; read-out: Percent Control
p38-gamma (MAPK12), sequence (P53778 whole entry): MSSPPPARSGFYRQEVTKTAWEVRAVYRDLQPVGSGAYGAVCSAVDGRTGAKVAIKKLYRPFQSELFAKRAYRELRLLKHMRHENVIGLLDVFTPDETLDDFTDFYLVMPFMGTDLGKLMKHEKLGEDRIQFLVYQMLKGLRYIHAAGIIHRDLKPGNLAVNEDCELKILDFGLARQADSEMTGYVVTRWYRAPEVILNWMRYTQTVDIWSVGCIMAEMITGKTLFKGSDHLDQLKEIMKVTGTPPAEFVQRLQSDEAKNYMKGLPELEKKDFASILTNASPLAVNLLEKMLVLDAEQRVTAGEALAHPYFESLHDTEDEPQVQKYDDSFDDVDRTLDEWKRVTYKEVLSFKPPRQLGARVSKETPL

CAMK4 = CAMK4 (Homo sapiens (Human), UniProt Q16566); test: KINOMEscan scanMAX; format: binding; details: 2000 nM; read-out: Percent Control
CAMK4, sequence (Q16566 whole entry): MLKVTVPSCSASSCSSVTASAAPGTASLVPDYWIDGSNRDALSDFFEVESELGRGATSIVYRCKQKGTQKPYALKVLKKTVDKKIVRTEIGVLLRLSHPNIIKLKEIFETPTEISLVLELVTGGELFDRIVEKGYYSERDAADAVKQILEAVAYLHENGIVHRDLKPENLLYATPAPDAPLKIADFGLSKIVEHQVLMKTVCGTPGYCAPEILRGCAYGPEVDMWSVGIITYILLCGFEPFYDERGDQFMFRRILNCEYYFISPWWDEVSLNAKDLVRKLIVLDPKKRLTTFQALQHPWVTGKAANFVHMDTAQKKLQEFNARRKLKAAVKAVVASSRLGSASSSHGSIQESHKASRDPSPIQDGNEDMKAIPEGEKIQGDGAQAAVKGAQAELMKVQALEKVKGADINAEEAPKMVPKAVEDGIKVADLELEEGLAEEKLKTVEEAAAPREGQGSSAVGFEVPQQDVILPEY

EPHA4 = EPHA4 (Homo sapiens (Human), UniProt P54764); test: KINOMEscan scanMAX; format: binding; details: 2000 nM; read-out: Percent Control
EGFR(E746-A750del) = EGFR(E746-A750del) (Homo sapiens (Human), UniProt P00533, DEL746-750); test: KINOMEscan scanMAX; format: binding; details: 2000 nM; read-out: Percent Control
[4] = target: EGFR(L747-E749del, A750P) (Homo sapiens (Human), UniProt P00533, A750P/DEL747-749); test: KINOMEscan scanMAX; format: binding; details: 2000 nM; read-out: Percent Control
[5] = system: CDK8/19-mediated NFκB-driven transcription; test: NFκB-dependent luciferase reporter assay in parental 293 reporter cells; format: cell-based, human; details: Homo sapiens

**Q.** For CN1CCN(C(=O)c2ccc3cc(CCNc4ccnc5ccc(C#N)cc45)ccc3c2)CC1 [compound 6148, 4-((2-(6-(4-methylpiperazine-1-carbonyl)naphthalen-2-yl)ethyl)amino)quinoline-6-carbonitrile], which remaining binding at 2 µM (FGR) is on record?
**A.** 90%

**Q.** And the remaining binding at 2 µM (MKNK2)?
**A.** 71%

**Q.** And the remaining binding at 2 µM (YSK4 (MAP3K19))?
**A.** 50%

**Q.** What about the remaining binding at 2 µM (TRKA (NTRK1)) of the same compound?
**A.** 53%

**Q.** What about the remaining binding at 2 µM (BMX) of the same compound?
**A.** 100%

**Q.** And the remaining binding at 2 µM (PRKD2)?
**A.** 88%

**Q.** And the remaining binding at 2 µM (HCK)?
**A.** 96%

**Q.** What about the remaining binding at 2 µM (PIKFYVE) of the same compound?
**A.** 86%

**Q.** What about the remaining binding at 2 µM (LIMK1) of the same compound?
**A.** 95%

**Q.** What about the “Percent Control” value (FLT3(ITD, D835V)) of the same compound?
**A.** 55%

**Q.** What about the “Potency in inhibition of PSA production relative to Senexin B” value (LNCaP-C4-2 cells) of the same compound?
**A.** ~3 fold

**Q.** And the remaining binding at 2 µM (DYRK2)?
**A.** 68%

**Q.** And the remaining binding at 2 µM (WNK2)?
**A.** 59%

**Q.** What about the remaining binding at 2 µM (PRKCH) of the same compound?
**A.** 91%

**Q.** And the remaining binding at 2 µM [1]?
**A.** 93%

**Q.** What about the remaining binding at 2 µM (NEK4) of the same compound?
**A.** 60%

**Q.** And the remaining binding at 2 µM (EPHB1)?
**A.** 92%

**Q.** What about the remaining binding at 2 µM [2] of the same compound?
**A.** 100%

**Q.** And the remaining binding at 2 µM (S6K1 (RPS6KB1))?
**A.** 78%

**Q.** What about the remaining binding at 2 µM (ZAP70) of the same compound?
**A.** 81%

**Q.** And the remaining binding at 2 µM (FLT3(K663Q))?
**A.** 87%

**Q.** What about the remaining binding at 2 µM (SYK) of the same compound?
**A.** 97%

**Q.** And the remaining binding at 2 µM (QSK (KIAA0999))?
**A.** 55%

**Q.** And the “POC of the other members of the CDK family in the scanMAX panel” value [3]?
**A.** ≥ 64 POC

**Q.** And the remaining binding at 2 µM (LRRK2)?
**A.** 85%

**Q.** What about the remaining binding at 2 µM (PRKG2) of the same compound?
**A.** 84%

**Q.** And the remaining binding at 2 µM (PKN1)?
**A.** 100%

**Q.** What about the remaining binding at 2 µM (ADCK3 (CABC1)) of the same compound?
**A.** 100%

**Q.** What about the remaining binding at 2 µM (FGFR3(G697C)) of the same compound?
**A.** 93%

**Q.** And the remaining binding at 2 µM (PLK4)?
**A.** 90%

**Q.** What about the remaining binding at 2 µM (VEGFR2 (KDR)) of the same compound?
**A.** 82%

**Q.** And the remaining binding at 2 µM (p38-gamma (MAPK12))?
**A.** 100%

**Q.** And the remaining binding at 2 µM (CAMK4)?
**A.** 95%

**Q.** What about the remaining binding at 2 µM (EPHA4) of the same compound?
**A.** 93%

**Q.** And the remaining binding at 2 µM (EGFR(E746-A750del))?
**A.** 100%

**Q.** What about the remaining binding at 2 µM [4] of the same compound?
**A.** 77%

**Q.** And the IC50 ([5]; 293/NFkB-luc, read-out: IC50 (293-NFKB-Luc))?
**A.** 0.055 µM

**Q.** And the IC50 ([5]; HEK293, parental 293-derived reporter cell line, read-out: HEK293 NFKB CDK8 Reporter IC50)?
**A.** 0.065 µM
